Measurements: patent US10961233B2 (LIFEARC, priority 2016, dated 2021)

Tests used:
WT full length PAICS = WT full length PAICS (Homo sapiens (Human), UniProt P22234); experiment: Biochemical assay to measure PAICS activity (Transcreener ADP2 FI); details: SAICAR synthetase reaction, ADP detection, 30 min pre-incubation
Description: Biochemical Assay to Measure PAICS Activity
The biochemical assay was used to measure PAICS SAICAR synthetase-mediated conversion of CAIR, aspartic acid and ATP to SAICAR, ADP and inorganic phosphate (Pi), post-AIR/CAIR equilibration (see FIG. 3). This was achieved by detecting the ADP generated during the reaction, using Bellbrook Lab's Transcreener ADP^2 FI assay. An increase in the fluorescence intensity is directly proportional to the amount of PAICS activity.
The Transcreener ADP^2 FI assay is a homogeneous competitive displacement fluorescence intensity assay which uses direct immunodetection of ADP. Displacement of the tracer by ADP causes an increase in the fluorescence at excitation 590 nm and emission 617 nm (FIG. 3).
5 μl WT full length PAICS (final assay concentration, fac, 2.5 nM) in basic buffer, added to black, non-binding, 384-well plates (Corning #3575), columns 1 to 22. 5 μl basic buffer was added to columns 23+24 (negative control). PAICS stock at 31.9 μM from the PI's lab (Steve Firestine). Basic buffer contained 50 mM Tris-HCl pH8 and 0.5 mM EDTA, fac.
1 μl compound in 100% DMSO added per well, or 1 μl 100% DMSO to positive controls (columns 1+2) and negative controls (columns 23+24). Final assay top concentration of compound either 1 mM or 30-μM, serially diluted with half-log dilutions across the plate in duplicate (one 10-point concentration response curve across wells 3 to 12, another across 13 to 22). Compounds pre-incubated with PAICS enzyme for 30 mins at RT. 2 μl CAIR added (fac 10 μM) in basic buffer plus 25 mM MgCl2 and 50 mM KHCO3 fac to all wells. CAIR stock 50 mM from Steve Firestine's lab. 1 hr RT incubation for AIR-CAIR equilibration. NB: ˜50% CAIR is decarboxylated during equilibration therefore 5 μM remains for the synthetase reaction.
2 μl ATP/aspartic acid added (fac 30 μM/180 μM) in reaction buffer to all wells. 30 mins RT incubation for appropriate level of ATP turnover. Reaction buffer contained basic buffer plus 10 mM DTT, 0.01% BSA and 0.01% Brij 35, fac.
10 μl ADP detection reagent added to all wells (as per instructions, Transcreener ADP^2 FI kit, BellBrook Labs #3013-10K). Incubation for 1 h at RT to allow antibody equilibration. Fluorescence intensity determined using a Tecan Safire2 (excitation at 590 nm, emission at 617 nm).

[1] = test system: LM2 and MDA-MB-231 breast cancer cell lines; experiment: PAICS 2D cell proliferation assay (CellTiter-Glo viability, 72 h); format: cell-based; details: Homo sapiens; 72 h incubation; cell line not given
Experimental: PAICS 2D Cell Proliferation Assay
Frozen cryovial stocks of LM2 and MDA-MB-231 breast cancer cell lines were thawed and cultured in 4.5 g/L glucose DMEM (31966-047, Invitrogen) supplemented with 10% Fetal Bovine Serum (10500-064, Invitrogen) until confluent in a T175 flask. Cells were incubated at 37° C. with 5% CO2 in a humidified incubator.
Cells were collected from T175 flasks by washing with PBS (10010-056, Invitrogen) and dissociated using Accutase (A6964, Sigma Aldrich). This was followed by centrifuging (1200 rpm, 5 min) and resuspending the cells in 10 ml of media containing 1% penicillin/streptomycin (15140-122, Invitrogen). Cells were counted by trypan blue exclusion method using an automated cell counter (Cellometer) and diluted to a concentration of 40,000/ml. 1000 cells were then seeded into 384-well white-walled plates (Corning, 3707) in a volume of 25 μl. Plates were Incubated overnight at 37° C. with 5% CO2.
After 24 hours, PAICS compounds were added onto the assay plates using an HP D300 Digital Dispenser (Hewlett Packard). 10 mM stocks were used and dispensed as a 10 point concentration response curve (CRC) ½ log dilution series with a final top concentration of 100 μM. Controls were added onto each plate: positive controls included Staurosporine CRC (100 μM stock dispensed as a 10 point CRC ½ log dilution series with a final top concentration of 1 μM) and PAICS compound MRT00211919 (10 mM stock dispensed as a 10 point CRC ½ log dilution series with a final top concentration of 100 μM); a high control of Staurosporine (0.1 μM (LM2), 0.316 μM (MDA-MB-231) FAC) and a low control of media containing 1% DMSO. A final concentration of 1% DMSO was then added across the plates for normalisation. Following compound addition, assay plates were incubated for 72 hours at 37° C. with 5% CO2.
Day 5—Cytotoxicity and Cell Viability Assays
After 72 h incubation, dead and viable cells were measured in each assay plate. Cytotoxicity was assessed through fluorescent DNA staining using the CellTox™ Green Cytotoxicity Assay kit (G8743, Promega) following the manufacturer's multiplexing protocol. Impaired cell membrane integrity results in the access of dye to stain DNA allowing quantification of dead cells. Cell viability was determined following ATP quantification using the CellTiter-Glo® Luminescent Cell Viability Assay kit (G7572, Promega) following the manufacturer's protocol. ATP released from lysed cells allowed for the generation of a signal proportional to the number of cells present in the well. All endpoint reads were performed using the PheraSTAR Plus (BMG Labtech). Data is expressed as % viable cells and % dead cells against controls (mean±SEM of duplicate curves).

WT full length PAICS, sequence (P22234 whole entry): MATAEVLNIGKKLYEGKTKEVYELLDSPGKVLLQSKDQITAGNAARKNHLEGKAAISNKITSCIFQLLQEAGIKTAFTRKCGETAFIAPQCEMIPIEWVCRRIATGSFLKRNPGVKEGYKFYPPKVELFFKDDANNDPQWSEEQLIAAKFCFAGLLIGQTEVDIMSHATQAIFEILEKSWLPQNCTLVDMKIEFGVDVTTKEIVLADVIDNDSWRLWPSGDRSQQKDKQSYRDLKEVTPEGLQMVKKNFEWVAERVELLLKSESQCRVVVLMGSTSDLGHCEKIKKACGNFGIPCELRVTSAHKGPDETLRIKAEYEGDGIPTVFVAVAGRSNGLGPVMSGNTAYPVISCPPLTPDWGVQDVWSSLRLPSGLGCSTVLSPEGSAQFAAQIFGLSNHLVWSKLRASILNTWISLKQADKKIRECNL

Row | IC50 (WT full length PAICS) | EC50 [1] | SMILES
1 | > 100 nM | 500 to 1000 nM | Nc1nc(C(=O)Nc2cc(N3CCN(C(=O)OCC4CNC4)CC3)ccc2Cl)co1 [Example 19, Azetidin-3-ylmethyl 4-(3-(2-aminooxazole-4-carboxamido)-4-chlorophenyl) piperazine-1-carboxylate]
2 | 10 to 25 nM | 500 to 1000 nM | CN1CC(COC(=O)N2CCN(c3ccc(Cl)c(NC(=O)c4coc(N)n4)c3)CC2)C1 [Example 20, (1-Methylazetidin-3-yl) methyl 4-(3-(2-aminooxazole-4-carboxamido)-4-chlorophenyl) piperazine-1-carboxylate]
3 | 10 to 25 nM | 100 to 250 nM | Nc1nc(C(=O)Nc2cc(N3CCN(C(=O)OCCNC4CC4)CC3)ccc2Br)co1 [Example 21, 2-(Cyclopropylamino)ethyl 4-(3-{[(2-amino-1,3-oxazol-4-yl)carbonyl]amino}-4-bromophenyl)piperazine-1-carboxylate]
4 | > 100 nM | 100 to 250 nM | Nc1nc(C(=O)Nc2cc(N3CCN(C(=O)OC4CNC4)CC3)ccc2Cl)co1 [Example 22, Azetidin-3-yl 4-(3-{[(2-amino-1,3-oxazol-4-yl)carbonyl]amino}-4-chlorophenyl)piperazine-1-carboxylate]
5 | 10 to 25 nM | 100 to 250 nM | CNCCOC(=O)N1CCN(c2ccc(Br)c(NC(=O)c3coc(N)n3)c2)CC1 [Example 25, 2-(Methylamino)ethyl 4-(3-(2-aminooxazole-4-carboxamido)-4-bromophenyl)piperazine-1-carboxylate]
6 |  | 500 to 1000 nM | CSc1ccc(N2CCN(C(=O)OCCCN(C)C)CC2)cc1NC(=O)c1coc(N)n1 [Example 26, 3-(Dimethylamino)propyl-4-[3-{[(2-amino-1,3-oxazol-4-yl)carbonyl]amino}-4-(methylsulfanyl)phenyl]piperazine-1-carboxylate]
7 |  | 500 to 1000 nM | CSc1ccc(N2CCN(C(=O)OCCN(C)C)CC2)cc1NC(=O)c1coc(N)n1 [Example 27, 2-(Dimethylamino)ethyl 4-[3-{[(2-amino-1,3-oxazol-4-yl)carbonyl]amino}-4-(methylsulfanyl)phenyl]piperazine-1-carboxylate]
8 | 10 to 25 nM | 250 to 500 nM | CN1CC(OC(=O)N2CCN(c3ccc(Br)c(NC(=O)c4coc(N)n4)c3)CC2)C1 [Example 28, 1-Methylazetidin-3-yl 4-(3-{[(2-amino-1,3-oxazol-4-yl)carbonyl]amino}-4-bromophenyl)piperazine-1-carboxylate]
9 | 25 to 100 nM | 500 to 1000 nM | CN(C)CCCOC(=O)N1CCN(c2ccc(Cl)c(NC(=O)c3coc(N)n3)c2)CC1 [Example 29, 3-(Dimethylamino)propyl 4-(3-{[(2-amino-1,3-oxazol-4-yl)carbonyl]amino}-4-chlorophenyl)piperazine-1-carboxylate]
10 | > 100 nM | 500 to 1000 nM | CN1CCC(OC(=O)N2CCN(c3ccc(Cl)c(NC(=O)c4coc(N)n4)c3)CC2)C1 (centres unmarked) [Example 30, 1-Methylpyrrolidin-3-yl 4-(3-{[(2-amino-1,3-oxazol-4-yl)carbonyl]amino}-4-chlorophenyl)piperazine-1-carboxylate]
11 | 25 to 100 nM | 500 to 1000 nM | CNCCOC(=O)N1CCN(c2ccc(Cl)c(NC(=O)c3coc(N)n3)c2)CC1 [Example 31, 2-(Methylamino)ethyl 4-(3-{[(2-amino-1,3-oxazol-4-yl)carbonyl]amino}4-chlorophenyl)piperazine-1-carboxylate]
12 | 25 to 100 nM | 500 to 1000 nM | Nc1nc(C(=O)Nc2cc(N3CCN(C(=O)OC4CCNC4)CC3)ccc2Cl)co1 (centres unmarked) [Example 32, Pyrrolidin-3-yl 4-(3-{[(2-amino-1,3-oxazol-4-yl)carbonyl]amino}-4-chlorophenyl)piperazine-1-carboxylate]
13 | 25 to 100 nM | 500 to 1000 nM | CN(C)CCOC(=O)N1CCN(c2ccc(Cl)c(NC(=O)c3coc(N)n3)c2)CC1 [Example 33, 2-(Dimethylamino)ethyl 4-(3-{[(2-amino-1,3-oxazol-4-yl)carbonyl]amino}-4-chlorophenyl)piperazine-1-carboxylate]
14 |  | < 100 nM | CC(CN1CCCC1)CS(=O)(=O)N1CCN(c2ccc(Br)c(NC(=O)c3coc(N)n3)c2)CC1 (centres unmarked) [Example 71, 2-Amino-N-[2-bromo-5-(4-{[2-methyl-3-(pyrrolidin-1-yl)propyl]sulfonyl}piperazin-1-yl)phenyl]-1,3-oxazole-4-carboxamide]
15 |  | < 100 nM | CNCC(C)CS(=O)(=O)N1CCN(c2ccc(Br)c(NC(=O)c3coc(N)n3)c2)CC1 (centres unmarked) [Example 78, 2-Amino-N-[2-bromo-5-(4-{[2-methyl-3-(methylamino)propyl]sulfonyl}piperazin-1-yl)phenyl]-1,3-oxazole-4-carboxamide]
16 |  | < 100 nM | CCNCC(C)CS(=O)(=O)N1CCN(c2ccc(Br)c(NC(=O)c3coc(N)n3)c2)CC1 (centres unmarked) [Example 79, 2-Amino-N-[2-bromo-5-(4-{[3-(ethylamino)-2-methylpropyl]sulfonyl}piperazin-1-yl)phenyl]-1,3-oxazole-4-carboxamide]
17 |  | < 100 nM | CC(CNC(C)C)CS(=O)(=O)N1CCN(c2ccc(Br)c(NC(=O)c3coc(N)n3)c2)CC1 (centres unmarked) [Example 80, 2-Amino-N-[2-bromo-5-(4-{[2-methyl-3-(propan-2-ylamino)propyl]sulfonyl}piperazin-1-yl)phenyl]-1,3-oxazole-4-carboxamide]
18 |  | 100 to 250 nM | CCN(CC)CC(C)CS(=O)(=O)N1CCN(c2ccc(Br)c(NC(=O)c3coc(N)n3)c2)CC1 (centres unmarked) [Example 81, 2-Amino-N-[2-bromo-5-(4-{[3-(diethylamino)-2-methylpropyl]sulfonyl}piperazin-1-yl)phenyl]-1,3-oxazole-4-carboxamide]
19 |  | 100 to 250 nM | CC(CN(C)C)CS(=O)(=O)N1CCN(c2ccc(Br)c(NC(=O)c3coc(N)n3)c2)CC1 (centres unmarked) [Example 82, 2-Amino-N-[2-bromo-5-(4-{[3-(dimethylamino)-2-methylpropyl]sulfonyl}piperazin-1-yl)phenyl]-1,3-oxazole-4-carboxamide]
20 |  | 100 to 250 nM | Nc1nc(C(=O)Nc2cc(N3CCN(S(=O)(=O)C4CCNC4)CC3)ccc2Br)co1 (centres unmarked) [Example 88, 2-Amino-N-{2-bromo-5-[4-(pyrrolidin-3-ylsulfonyl)piperazin-1-yl]phenyl}-1,3-oxazole-4-carboxamide]
21 |  | 100 to 250 nM | CN1CCC(S(=O)(=O)N2CCN(c3ccc(Br)c(NC(=O)c4coc(N)n4)c3)CC2)C1 (centres unmarked) [Example 89, 2-Amino-N-(2-bromo-5-{4-[(1-methylpyrrolidin-3-yl)sulfonyl]piperazin-1 yl}phenyl)-1,3-oxazole-4-carboxamide]
